Assay results taken from ChEMBL document CHEMBL4665903, “Novel Tricyclic Compounds for Treating Bacterial Infection” (ACS Med Chem Lett, 2020).

Experiments:
Format in all cases: functional, organism-based
Klebsiella pneumoniae = assay: Antibacterial activity against Klebsiella pneumoniae ATCC 10031 assessed as bacterial growth inhibition and measured every 20 mins for 16 hrs
Acinetobacter baumannii = assay: Antibacterial activity against Acinetobacter baumannii ATCC 17978 assessed as bacterial growth inhibition and measured every 20 mins for 16 hrs
Staphylococcus aureus = assay: Antibacterial activity against Staphylococcus aureus ATCC 29213 assessed as bacterial growth inhibition and measured every 20 mins for 16 hrs

**Q.** `CCNc1cc(F)cc2c1[nH]c1ncc(-c3cncc(C#N)c3)c(N3CCC(F)(CN)C3)c12` (stereo not drawn) was tested. Which IC50 (Klebsiella pneumoniae) did it give?
**A.** The IC50 was < 0.098 µM.

**Q.** And the IC50 (Acinetobacter baumannii)?
**A.** Its IC50 is < 0.098 µM.

**Q.** What about the IC50 (Staphylococcus aureus) of the same compound?
**A.** Its IC50 is 0.312 µM.

**Q.** Which IC50 (Klebsiella pneumoniae) does the source give for `CCNc1cc(F)cc2c1[nH]c1ncc(-c3cncc(C#N)c3)c(N3CC[C@@]4(C[C@H]4N)C3)c12` here?
**A.** Its IC50 is < 0.098 µM.

**Q.** And the IC50 (Acinetobacter baumannii)?
**A.** Its IC50 is < 0.098 µM.

**Q.** And the IC50 (Staphylococcus aureus)?
**A.** The IC50 was 0.863 µM.

**Q.** For `CCNc1cc(F)c(F)c2c1[nH]c1ncc(-c3cnc(OC)nc3)c(N3CCC[C@@H](CN)C3)c12`, which IC50 (Klebsiella pneumoniae) is on record?
**A.** The IC50 was < 0.098 µM.

**Q.** What about the IC50 (Acinetobacter baumannii) of the same compound?
**A.** The IC50 was < 0.098 µM.

**Q.** What about the IC50 (Staphylococcus aureus) of the same compound?
**A.** The IC50 was 0.394 µM.

**Q.** Which IC50 (Klebsiella pneumoniae) does the source give for `CNc1cc(F)c(F)c2c1[nH]c1ncc(-c3cncc(C#N)c3)c(N3CCCC(F)(CN)C3)c12` (stereo not drawn) here?
**A.** The IC50 was < 0.098 µM.

**Q.** And the IC50 (Acinetobacter baumannii)?
**A.** Its IC50 is < 0.098 µM.

**Q.** And the IC50 (Staphylococcus aureus)?
**A.** The IC50 was 0.477 µM.

**Q.** With `CNc1cc(F)c(F)c2c1[nH]c1ncc(-c3cnc(OC)nc3)c(N3CC[C@@]4(C[C@@H]4N)C3)c12` as the compound, how does the IC50 (Klebsiella pneumoniae) read?
**A.** The IC50 was < 0.098 µM.

**Q.** What about the IC50 (Acinetobacter baumannii) of the same compound?
**A.** Its IC50 is < 0.098 µM.

**Q.** What about the IC50 (Staphylococcus aureus) of the same compound?
**A.** Its IC50 is 0.184 µM.

**Q.** Which results are given for `CNc1cc(F)c(F)c2c1[nH]c1ncc(-c3cnc4ccnn4c3)c(N3CC[C@H]4CN(C)C[C@H]43)c12`?
**A.** IC50 (Klebsiella pneumoniae): < 0.098 µM; IC50 (Acinetobacter baumannii): < 0.098 µM; IC50 (Staphylococcus aureus): 0.369 µM
